Results: patent US7173062B2, “Method for the improvement of skin wrinkles using retinyl retinoate” (Enprani Co., Ltd., priority 2001, dated 2007)
“Also recorded” adds a separate entry of the source.

Legend:
[1] = test system: Normal human fibroblast (Newborn, passage: 6); experiment: Collagen synthesis test (Sircol collagen assay); assay type: cell-based; settings: for increasing effect for collagen synthesis over control group treated only by DMEM: 2 days
Method: The effect for collagen synthesis of the compound of formula (1) was examined by using retinol, retinoic acid, and derivatives thereof as comparison compounds to confirm its utility as inhibitors for skin aging as follows. The results are represented in FIG. 2.
Cell: Normal human fibroblast (Newborn, passage: 6)
Medium: DMEM containing 10% FBS→DMEM free of FBS was used when cells were treated with samples.
Concentration: A range of concentration where the samples exert no toxicity to the cells was selected through a cell toxicity test ? 0.000001%, 0.00001%(w/v)
Procedure: 1×10^5 cells/well were inoculated into a 6-well plate. Cells were cultured to show about 79–80% confluent. Cells were treated with test samples and incubated for 2 days (FBS was not added to the medium when cells were treated with samples). After 2 days, cell medium and cells were separated from each other and respectively stored in a refrigerator. The cell extract was subjected to the protein analysis (BCA Protein Assay Kit, PIERCE 23225) and the medium was subjected to collagen analysis.
After the medium was removed, a small amount of PBS was added. Cells were scraped with a scraper. 1N NaOH (100 μl) and distilled water (400 μl) were added and the resulting mixture was allowed to stand overnight. Then, the protein analysis was carried out.
Collagen analysis: Analysis kit (Sircol Collagen assay kit—a dye that specifically combines with soluble collagen is used)
1.0 ml of Sircol Dye Reagent was introduced into each tube and mixed for 30 minutes. The mixture was centrifuged for 10 minutes at 5,000 g or more and the supernatant was removed. 1.0 ml Sircol Alkali Reagent was added, slowly mixed, and absorbance at 540 nm was measured. The amount of protein was converted into the value of collagen analysis (see: Mechanism of Aging and Development 73, 179–187, 1994).
After the above experiment, the increasing ratio for collagen synthesis of the test group over the control group treated only by DMEM was depicted in FIG. 2.

[2] = Thermal stability test (quantitative HPLC); assay type: physicochemical; settings: humidity 58%, in % (unit assumed)
Method: In order to compare thermal stability of the compound of formula (1) with retinol, phase stability for 1 month in a thermohygrostat (humidity: 58%) of room temperature, 40° C., and 4° C. was examined by a quantitative HPLC analysis under the following condition.
1) Column: Capcellpak UG 120 (5 μm, 4.6 mm*150 mm, shiseido, Japan)
3) Detector: UV(PDA 326 nm), • Fluorescence: Ex: 326nrm, Em: 460 nm

RAR β = molecular target: T1, RAR β (Homo sapiens, UniProt P10826); experiment: Activity for RAR β (CAT reporter in HaCaT cells); assay type: cell-based; settings: 1 μM, CAT ELISA
T1 construct: expressed in transfected cells; host or cells: HaCaT
T1 sequence (P10826 1-455): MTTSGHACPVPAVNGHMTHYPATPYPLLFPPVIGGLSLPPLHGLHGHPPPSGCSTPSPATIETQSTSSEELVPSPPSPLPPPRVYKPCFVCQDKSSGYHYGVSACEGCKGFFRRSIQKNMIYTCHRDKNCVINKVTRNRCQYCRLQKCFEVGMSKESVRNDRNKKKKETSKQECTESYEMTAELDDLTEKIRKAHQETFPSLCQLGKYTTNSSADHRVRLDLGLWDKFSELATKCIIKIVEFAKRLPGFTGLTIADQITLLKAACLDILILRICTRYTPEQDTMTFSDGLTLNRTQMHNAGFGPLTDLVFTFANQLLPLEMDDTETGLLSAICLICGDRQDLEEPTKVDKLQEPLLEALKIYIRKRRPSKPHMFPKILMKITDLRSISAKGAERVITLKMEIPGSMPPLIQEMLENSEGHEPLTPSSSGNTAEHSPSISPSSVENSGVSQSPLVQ
Method: (§1) The effect of the retinol derivatives on the activity of RAR and RXR was examined as follows.
(§2) Experimental procedure: Recombinant gene of DR5-tk-CAT or DR1-tk-CAT comprising DR1 or DR5 as a response element of RAR/RXR, […] promoter, and CAT (chloramphenicol acetyl transferase) was suitably combined with a plasmid DNA that expresses RAR α, β, γ and cotransfected to HaCaT cell line, a skin cancer cell line, with Lipofectamin (GibcoBRL). Then, the cells were incubated in DMEM/10% FBS medium for 1 day, retinol derivative was added in a concentration of 1 μM, and the cells were incubated again for 1 day under the condition of 5% CO2 and 37° C. The cells were washed with phosphate-buffered salione (PBS). Proteins were extracted from each cell, the activity of β-galactosidase was assayed, and the amount of protein was measured to determine the transfection efficiency. Further, the degree of transcription for RAR or RXR was analyzed by CAT ELISA (Roche Molecular Biochemicals, Mannheim, Germany).

RAR γ = molecular target: T2, RAR γ (Homo sapiens, UniProt P13631); experiment: Activity for RAR γ (CAT reporter in HaCaT cells); assay type: cell-based; settings: 1 μM, CAT ELISA
T2 construct: expressed in transfected cells; host or cells: HaCaT
T2 sequence (P13631 1-454): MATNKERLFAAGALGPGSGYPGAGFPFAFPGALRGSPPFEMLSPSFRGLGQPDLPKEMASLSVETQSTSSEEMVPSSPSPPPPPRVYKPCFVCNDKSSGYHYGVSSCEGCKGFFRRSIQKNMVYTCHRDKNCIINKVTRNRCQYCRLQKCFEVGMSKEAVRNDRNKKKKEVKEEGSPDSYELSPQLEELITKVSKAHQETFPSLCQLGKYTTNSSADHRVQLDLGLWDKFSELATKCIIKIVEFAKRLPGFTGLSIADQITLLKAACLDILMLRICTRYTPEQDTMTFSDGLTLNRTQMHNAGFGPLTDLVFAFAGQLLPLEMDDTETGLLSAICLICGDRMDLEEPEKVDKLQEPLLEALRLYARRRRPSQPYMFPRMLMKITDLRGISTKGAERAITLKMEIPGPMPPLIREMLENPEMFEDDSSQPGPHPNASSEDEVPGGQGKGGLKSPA
Method: as §1, §2

[3] = Control = 1.0, listed as compound of formula (1)

| Structure (SMILES) | effect for collagen synthesis (FIG. 2), comparison in words ([1]; 0.000001%, 0.00001%(w/v), human fibroblast) | collagen synthesis effect relative to retinol at the same concentration ([1]; 10^−6% (W/V)) | increasing effect for collagen synthesis over control group treated only by DMEM ([1]; 10^−6% (W/V), human fibroblast) | Thermal stability (amount by quantitative HPLC) ([2]; After 1 week, 4° C.) | Thermal stability (amount by quantitative HPLC) ([2]; After 1 week, 40° C.) | Thermal stability (amount by quantitative HPLC) ([2]; After 1 week, r.t.) | Thermal stability (amount by quantitative HPLC) ([2]; After 2 weeks, 4° C.) | Thermal stability (amount by quantitative HPLC) ([2]; After 2 weeks, 40° C.) | Thermal stability (amount by quantitative HPLC) ([2]; After 2 weeks, r.t.) | Thermal stability (amount by quantitative HPLC) ([2]; After 4 weeks, 4° C.) | Thermal stability (amount by quantitative HPLC) ([2]; After 4 weeks, 40° C.) | Thermal stability (amount by quantitative HPLC) ([2]; After 4 weeks, r.t.) | Thermal stability (amount by quantitative HPLC) ([2]; Initial value, 4° C.) | Thermal stability (amount by quantitative HPLC) ([2]; Initial value, 40° C.) | Thermal stability (amount by quantitative HPLC) ([2]; Initial value, r.t.) | Relative activity against RAR β (RAR β; Control = 1.0) | Relative activity against RAR β (RAR β; [3]) | Relative activity against RAR γ (RAR γ; Control = 1.0) | Relative activity against RAR γ (RAR γ; [3]) |
| --- | --- | --- | --- | --- | --- | --- | --- | --- | --- | --- | --- | --- | --- | --- | --- | --- | --- | --- | --- |
| CC1=C(/C=C/C(C)=C/C=C/C(C)=C/COC(=O)/C=C(C)/C=C/C=C(C)/C=C/C2=C(C)CCCC2(C)C)C(C)(C)CCC1 [Compound of formula (1), Retinyl retinoate] | superior effect for collagen synthesis at low concentration to retinol or retinoic acid | about 10 times | 41.29% | 100 | 74.46 | 92.77 | 100 | 70.25 | 90.45 | 99.65 | 68.23 | 89.21 | 100 | 100 | 100 | 1.5 | lower activity than retinoic acid but higher one than retinol; also recorded: low activity | 1.1 | lower activity than retinoic acid but higher one than retinol; also recorded: low activity |
| CC1=C(/C=C/C(C)=C/C=C/C(C)=C/CO)C(C)(C)CCC1 [Retinol] |  |  | 4.94% | 100 | 56.08 | 74.27 | 98.23 | 43.26 | 65.23 | 95.52 | 34.51 | 52.23 | 100 | 100 | 100 | 1.3 |  | 0.9 |  |
